Test results as given in patent US20230079389A1, “COMPOSITION FOR USE IN PREVENTION OR TREATMENT OF OESOPHAGEAL DISEASES LINKED TO EPITHELIAL BARRIER DEFECTS” (THELIAL B.V., priority 2020, published 2023).
Like-named read-outs stand apart in the source and are kept apart here.

How the values were obtained:
[1] = system: Par6; test: theLiTE assay: distribution of GFP-tagged Par6 in live follicular epithelia; details: for Par6 modulation (distribution of Par6 protein): live follicular epithelia of Drosophila egg chamber, Par6-GFP
Text: The present inventors used a unique approach in order to identify compounds which reinforce the TJ system via the control of TJ initiation. Par6 was selected as the biological target; it acts as a regulator of tight junction initiation. Par6 has a polar distribution, with a defined zone of high abundance at one end of the cell. This Par6 distribution is key to the biological function, not just the absolute Par6 protein level.
Standard tools for RNA and protein level measurement are not adequate to discover compounds which target Par6 and the present inventors devised and implemented an assay where the distribution of Par6 in living tissues can be monitored: Thelial Live Targeted Epithelia (theLiTE™; U.S. Pat. No. 9,416,391).
The technology of theLITE™ allows monitoring the distribution of Par6—an intracellular protein that controls tight junction assembly. The assay was performed in live follicular epithelia of the egg chamber of the fruit fly Drosophila. Par6 was tagged with a green fluorescence protein (GFP) and its distribution within the cell was monitored by the GFP signal. […] This protein distribution is key to the biological function, not just the absolute protein level.
In theLiTE, the present inventors tested whether compounds modulate the distribution of Par6 protein in live follicular epithelia. In theLiTE more than 20 live egg chambers were exposed to test each compound and monitored for Par6 distribution after a set incubation time; any positive compounds were tested in three separate runs of experiments and over a broad range of concentrations. The full method is disclosed in the US patent document. […] The positive control in FIG. 2, indicated with a “+” sign, is Antimycin A, at a concentration of 40 micromolar. The negative control, indicated with a “−” sign is the solvent medium (Insect cell culture medium plus 10% dimethyl sulfoxide).

[2] = system: subjects suffering from GERD; test: 6-weeks treatment of GERD subjects, synergy between active compounds; type: in vivo, human; details: for subjects reporting reduction in severity of GERD, as well as reduced usage of PPIs: 500 mg twice daily oral, 14 patients per group; for effect on GERD (in words): twice daily oral
Method: In a 6-weeks treatment, 50 subjects suffering from GERD receive a twice daily oral dose (1 hour before the morning and the evening meal) with either • Quercetin (500 mg); • Myricetin (500 mg); • Quercetin (500 mg) and Myricetin (500 mg); • Quercetin (500 mg) and Genistein (300 mg); • Myricetin (500 mg) and Berberine (750 mg).

[3] = system: patients with non-erosive Gastro esophageal Reflux Disease (GERD); details: cited from earlier work

Compound	toxicity [1]	Par6 modulation (distribution of Par6 protein) [1]	subjects reporting reduction in severity of GERD, as well as reduced usage of PPIs [2]	effect on GERD (in words) [2]	esophageal epithelial barrier function, resistance to injury upon contact with hydrochloric acid ([3]; 500 mg orally twice daily (tablet) for 6 weeks, endoscopic biopsies before and after)	heartburn symptom improvement ([3]; 14 GERD sufferers, twice 500 mg daily, 6-week period)	toxicity ([1]; screen of over 2000 compounds)
O=c1c(O)c(-c2ccc(O)c(O)c2)oc2cc(O)cc(O)c12 [Quercetin, 2-(3,4-dihydroxyphenyl)-3,5,7-trihydroxychromen-4-one]	low toxicity	potent Par6 modulation	12 subjects report reduction in severity of GERD,	reduction of GERD severity	increases esophageal epithelial barrier function	no report of consistent effects	–
COc1ccc2cc3[n+](cc2c1OC)CCc1cc2c(cc1-3)OCO2 [Berberine, 5,6-dihydro-9,10-dimehtoxybenzo[g]-1,3-benzodioxolo[5,6-a]quinolizinium]	–	do not modulate Par6	–	–	–	–	–
O=c1c(O)c(-c2cc(O)c(O)c(O)c2)oc2cc(O)cc(O)c12 [Myricetin, 3,5,7-Trihydroxy-2-(3,4,5-trihydroxyphenyl)-4H-1-benzopyran-4-one]	–	potent Par6 modulation	10 subjects report reduction in severity of GERD,	reduction of GERD severity	–	–	low toxicity
Antimycin A [reference compound]	–	most potent compound in the test	–	–	–	–	toxic
O=c1c(-c2ccc(O)cc2)coc2cc(O)cc(O)c12 [Genistein, 5,7-dihydro-3-(4-hydroxyphenyl)chromen-4-one]	–	do not modulate Par6	–	–	–	–	–
